# Reference: US11802111B2, “Cyclobutyl amide monoacylglycerol lipase modulators” (Janssen Pharmaceutica NV, priority 2020, dated 2023)
# Target: human MGL from HeLa cells (Homo sapiens (Human), UniProt Q99685)
# Assay: MGL in vitro activity assay ([glycerol-1,3-3H]-oleoyl glycerol hydrolysis, activated carbon filtration)
# Assay type: biochemical
# Settings: 300 nM [Glycerol-1,3-3H]-oleoyl glycerol, one hour
# Method in brief: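 Activity measured as tritium in the flow-through after activated carbon filtration of a 1 h reaction containing 300 nM 3H-oleoyl glycerol, compound and HeLa-derived human MGL. Compounds screened at 10 μM; IC50 series start at an empirically chosen highest concentration.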
# Chain of human MGL from HeLa cells (Q99685 whole entry): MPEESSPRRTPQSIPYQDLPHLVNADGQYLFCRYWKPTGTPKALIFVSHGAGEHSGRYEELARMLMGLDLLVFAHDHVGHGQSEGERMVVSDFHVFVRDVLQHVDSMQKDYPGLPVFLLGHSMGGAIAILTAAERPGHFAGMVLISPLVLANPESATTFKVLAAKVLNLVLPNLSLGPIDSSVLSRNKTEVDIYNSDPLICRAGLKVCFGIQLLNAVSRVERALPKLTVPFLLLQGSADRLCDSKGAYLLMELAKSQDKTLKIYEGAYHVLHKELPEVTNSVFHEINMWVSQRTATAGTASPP
row,SMILES,IC50 [nM]
1,C[C@]1(O)C[C@@H](C(=O)N2CC3(CCC(c4cn5ccccc5n4)CC3)C2)C1 [Example 391],1270
2,"C[C@]1(O)C[C@@H](C(=O)N2CC3(CCC(c4cnc5ccccn45)CC3)C2)C1 [Example 392, ((1s,3s)-3-Hydroxy-3-methylcyclobutyl)(7-(imidazo[1,2-c]pyridin-3-yl)-2-azaspiro[3.5]nonan-2-yl)methanone]",790
3,"C[C@]1(O)C[C@@H](C(=O)N2CC3(CCC(c4cnn5cccc5c4)CC3)C2)C1 [Example 393, ((1s,3s)-3-Hydroxy-3-methylcyclobutyl)(7-(pyrrolo[1,2-b]pyridazin-3-yl)-2-azaspiro[3.5]nonan-2-yl)methanone]",27
4,"C[C@]1(O)C[C@@H](C(=O)N2CC3(CCC(c4cnn5ccccc45)CC3)C2)C1 [Example 394, ((1s,3s)-3-Hydroxy-3-methylcyclobutyl)(7-(pyrazolo[1,5-c]pyridin-3-yl)-2-azaspiro[3.5]nonan-2-yl)methanone]",226
5,"C[C@]1(O)C[C@@H](C(=O)N2CC3(CCC(c4cc5n(n4)CCCC5)CC3)C2)C1 [Example 395, ((1s,3s)-3-Hydroxy-3-methylcyclobutyl)(7-(4,5,6,7-tetrahydropyrazolo[1,5-a]pyridin-2-yl)-2-azaspiro[3.5]nonan-2-yl)methanone]",354
6,"C[C@]1(O)C[C@@H](C(=O)N2CC3(CCC(c4cn5c(n4)CCCC5)CC3)C2)C1 [Example 396, ((1s,3s)-3-Hydroxy-3-methylcyclobutyl)(7-(5,6,7,8-tetrahydroimidazo[1,2-a]pyridin-2-yl)-2-azaspiro[3.5]nonan-2-yl)methanone]",7240
7,"Cc1cccc(CC2CCC3(CC2)CN(C(=O)[C@H]2C[C@@](C)(O)C2)C3)c1F [Example 398, (7-(2-Fluoro-3-methylbenzyl)-2-azaspiro[3.5]nonan-2-yl)((1s,3s)-3-hydroxy-3-methylcyclobutyl)methanone]",18
8,"Cc1cc(CC2CCC3(CC2)CN(C(=O)[C@H]2C[C@@](C)(O)C2)C3)ccc1F [Example 399, (7-(4-Fluoro-3-methylbenzyl)-2-azaspiro[3.5]nonan-2-yl)((1s,3s)-3-hydroxy-3-methylcyclobutyl)methanone]",19
9,"C[C@]1(O)C[C@@H](C(=O)N2CC3(CCC(Cn4ccc5cccnc54)CC3)C2)C1 [Example 400, (7-((1H-Pyrrolo[2,3-b]pyridin-1-yl)methyl)-2-azaspiro[3.5]nonan-2-yl)((1s,3s)-3-hydroxy-3-methylcyclobutyl)methanone]",311
10,"Cn1ccc2ccc(CC3CCC4(CC3)CN(C(=O)[C@H]3C[C@@](C)(O)C3)C4)nc21 [Example 401, ((1s,3s)-3-Hydroxy-3-methylcyclobutyl)(7-((1-methyl-1H-pyrrolo[2,3-b]pyridin-6-yl)methyl)-2-azaspiro[3.5]nonan-2-yl)methanone]",66
11,"Cn1ncc2ccc(CC3CCC4(CC3)CN(C(=O)[C@H]3C[C@@](C)(O)C3)C4)cc21 [Example 402, ((1s,3s)-3-Hydroxy-3-methylcyclobutyl)(7-((1-methyl-1H-indazol-6-yl)methyl)-2-azaspiro[3.5]nonan-2-yl)methanone]",185
12,"Cn1ncc2ccc(CC3CCC4(CC3)CN(C(=O)[C@H]3C[C@@](C)(O)C3)C4)nc21 [Example 403, ((1s,3s)-3-Hydroxy-3-methylcyclobutyl)(7-((1-methyl-1H-pyrazolo[3,4-b]pyridin-6-yl)methyl)-2-azaspiro[3.5]nonan-2-yl)methanone]",449
13,"C[C@]1(O)C[C@@H](C(=O)N2CC3(CCC(Oc4ccc(C(F)(F)F)cn4)CC3)C2)C1 [Example 417, ((1s,3s)-3-Hydroxy-3-methylcyclobutyl)(7-((5-(trifluoromethyl)pyridin-2-yl)oxy)-2-azaspiro[3.5]nonan-2-yl)methanone]",29
14,"C[C@]1(O)C[C@@H](C(=O)N2CC3(CCC(Oc4cc(C(F)(F)F)ccn4)CC3)C2)C1 [Example 418, ((1s,3s)-3-Hydroxy-3-methylcyclobutyl)(7-((4-(trifluoromethyl)pyridin-2-yl)oxy)-2-azaspiro[3.5]nonan-2-yl)methanone]",180
15,"CC1(Oc2ccc(C(F)(F)F)cn2)CCC2(CC1)CN(C(=O)[C@H]1C[C@@](C)(O)C1)C2 [Example 419, ((1s,3s)-3-Hydroxy-3-methylcyclobutyl)(7-methyl-7-((5-(trifluoromethyl)pyridin-2-yl)oxy)-2-azaspiro[3.5]nonan-2-yl)methanone]",12
16,"CCC1(Oc2ccc(C(F)(F)F)cn2)CCC2(CC1)CN(C(=O)[C@H]1C[C@@](C)(O)C1)C2 [Example 420, (7-Ethyl-7-((5-(trifluoromethyl)pyridin-2-yl)oxy)-2-azaspiro[3.5]nonan-2-yl)((1s,3s)-3-hydroxy-3-methylcyclobutyl)methanone]",33
17,"C[C@]1(O)C[C@@H](C(=O)N2CC3(CCC(Oc4cccc(C(F)(F)F)n4)CC3)C2)C1 [Example 421, ((1s,3s)-3-Hydroxy-3-methylcyclobutyl)(7-((6-(trifluoromethyl)pyridin-2-yl)oxy)-2-azaspiro[3.5]nonan-2-yl)methanone]",84
18,"C[C@]1(O)C[C@@H](C(=O)N2CC3(CCC(Oc4ccc(C(F)(F)F)nc4)CC3)C2)C1 [Example 424, ((1s,3s)-3-Hydroxy-3-methylcyclobutyl)(7-((6-(trifluoromethyl)pyridin-3-yl)oxy)-2-azaspiro[3.5]nonan-2-yl)methanone]",99

# Other lines, results leading:
row,IC50 [nM],SMILES
1,16,"Cc1ccc(CC2CCC3(CC2)CN(C(=O)[C@H]2C[C@@](C)(O)C2)C3)cc1 [Example 397, ((1s,3s)-3-Hydroxy-3-methylcyclobutyl)(7-(4-methylbenzyl)-2-azaspiro[3.5]nonan-2-yl)methanone]"
2,53,"Cc1ccc(OC2CCC3(CC2)CN(C(=O)[C@H]2C[C@@](C)(O)C2)C3)cc1 [Example 404, ((1s,3s)-3-Hydroxy-3-methylcyclobutyl)(7-(p-tolyloxy)-2-azaspiro[3.5]nonan-2-yl)methanone]"
3,32,"Cc1ccc(OC2CCC3(CC2)CN(C(=O)[C@H]2C[C@@](C)(O)C2)C3)cc1C [Example 405, (7-(3,4-Dimethylphenoxy)-2-azaspiro[3.5]nonan-2-yl)((1s,3s)-3-hydroxy-3-methylcyclobutyl)methanone]"
4,20,"Cc1cccc(OC2CCC3(CC2)CN(C(=O)[C@H]2C[C@@](C)(O)C2)C3)c1C [Example 406, (7-(2,3-Dimethylphenoxy)-2-azaspiro[3.5]nonan-2-yl)((1s,3s)-3-hydroxy-3-methylcyclobutyl)methanone]"
5,143,"COc1cc(C)cc(OC2CCC3(CC2)CN(C(=O)[C@H]2C[C@@](C)(O)C2)C3)c1 [Example 407, ((1s,3s)-3-Hydroxy-3-methylcyclobutyl)(7-(3-methoxy-5-methylphenoxy)-2-azaspiro[3.5]nonan-2-yl)methanone]"
6,33,"COc1cc(OC2CCC3(CC2)CN(C(=O)[C@H]2C[C@@](C)(O)C2)C3)ccc1C [Example 408, ((1s,3s)-3-Hydroxy-3-methylcyclobutyl)(7-(3-methoxy-4-methylphenoxy)-2-azaspiro[3.5]nonan-2-yl)methanone]"
7,42,"COc1cccc(OC2CCC3(CC2)CN(C(=O)[C@H]2C[C@@](C)(O)C2)C3)c1C [Example 409, ((1s,3s)-3-Hydroxy-3-methylcyclobutyl)(7-(3-methoxy-2-methylphenoxy)-2-azaspiro[3.5]nonan-2-yl)methanone]"
8,2.8,"Cc1ccc(Cl)c(OC2CCC3(CC2)CN(C(=O)[C@H]2C[C@@](C)(O)C2)C3)c1 [Example 410, (7-(2-Chloro-5-methylphenoxy)-2-azaspiro[3.5]nonan-2-yl)((1s,3s)-3-hydroxy-3-methylcyclobutyl)methanone]"
9,9.1,"Cc1ccc(OC2CCC3(CC2)CN(C(=O)[C@H]2C[C@@](C)(O)C2)C3)cc1Cl [Example 411, (7-(3-Chloro-4-methylphenoxy)-2-azaspiro[3.5]nonan-2-yl)((1s,3s)-3-hydroxy-3-methylcyclobutyl)methanone]"
10,1.4,"Cc1cc(Cl)ccc1OC1CCC2(CC1)CN(C(=O)[C@H]1C[C@@](C)(O)C1)C2 [Example 412, (7-(4-Chloro-2-methylphenoxy)-2-azaspiro[3.5]nonan-2-yl)((1s,3s)-3-hydroxy-3-methylcyclobutyl)methanone]"
11,22,"Cc1c(Cl)cccc1OC1CCC2(CC1)CN(C(=O)[C@H]1C[C@@](C)(O)C1)C2 [Example 413, (7-(3-Chloro-2-methylphenoxy)-2-azaspiro[3.5]nonan-2-yl)((1s,3s)-3-hydroxy-3-methylcyclobutyl)methanone]"
12,15,"COc1cc(OC2CCC3(CC2)CN(C(=O)[C@H]2C[C@@](C)(O)C2)C3)ccc1Cl [Example 414, (7-(4-Chloro-3-methoxyphenoxy)-2-azaspiro[3.5]nonan-2-yl)((1s,3s)-3-hydroxy-3-methylcyclobutyl)methanone]"
13,3.3,"C[C@]1(O)C[C@@H](C(=O)N2CC3(CCC(Oc4ccc(C5CC5)c(F)c4)CC3)C2)C1 [Example 415, (7-(4-Cyclopropyl-3-fluorophenoxy)-2-azaspiro[3.5]nonan-2-yl)((1s,3s)-3-hydroxy-3-methylcyclobutyl)methanone]"
14,1.9,"Cc1ccc(C(F)(F)F)cc1OC1CCC2(CC1)CN(C(=O)[C@H]1C[C@@](C)(O)C1)C2 [Example 416, ((1s,3s)-3-Hydroxy-3-methylcyclobutyl)(7-(2-methyl-5-(trifluoromethyl)phenoxy)-2-azaspiro[3.5]nonan-2-yl)methanone]"
15,24,"CC(F)(F)c1ccc(OC2CCC3(CC2)CN(C(=O)[C@H]2C[C@@](C)(O)C2)C3)nc1 [Example 422, (7-((5-(1,1-Difluoroethyl)pyridin-2-yl)oxy)-2-azaspiro[3.5]nonan-2-yl)((1s,3s)-3-hydroxy-3-methylcyclobutyl)methanone]"
16,188,"C[C@]1(O)C[C@@H](C(=O)N2CC3(CCC(Oc4ccc(C(F)F)cn4)CC3)C2)C1 [Example 423, (7-((5-(Difluoromethyl)pyridin-2-yl)oxy)-2-azaspiro[3.5]nonan-2-yl)((1s,3s)-3-hydroxy-3-methylcyclobutyl)methanone]"
